Assay results as given in US10206394B2, “Herbicidal compounds” (Syngenta Participations AG, priority 2014, dated 2019).
Like-named read-outs stand apart in the source and are kept apart here.

Assays:
Assay in all cases: Glasshouse assay for herbicidal activity (pre- and post-emergence), percentage phytotoxicity
Assay type in all cases: in vivo
[1] = system: Alopecurus myosuroides (ALOMY); settings: Alopecurus myosuroides, rate 250 g/ha
Summary of the method: (§1)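 Percent injury was estimated by eye on a scale where 0% means no damage and 100% complete damage. Ratings came 15 DAA post-emergence and 20 DAA pre-emergence, with plants held under 16 h light and 65% humidity at 24/18 °C or 20/16 °C day/night.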

[2] = system: Avena fatua (AVEFA); settings: Avena fatua, rate 250 g/ha
Summary of the method: as §1

[3] = system: Echinochloa crus-galli (ECHCG); settings: Echinochloa crus-galli, rate 250 g/ha
Summary of the method: as §1

[4] = system: Lolium perenne (LOLPE); settings: Lolium perenne, rate 250 g/ha
Summary of the method: as §1

[5] = post-emergence, 360 h, POST-emergence, visual score 15 DAA (100%=total damage, 0%=no damage), read-out: Post-emergence herbicidal activity (percentage phytotoxicity) ALOMY POST
[6] = pre-emergence, 480 h, PRE-emergence, visual score 20 DAA (100%=total damage, 0%=no damage), read-out: Pre-emergence herbicidal activity (percentage phytotoxicity) ALOMY PRE
[7] = post-emergence, 360 h, POST-emergence, visual score 15 DAA (100%=total damage, 0%=no damage), read-out: Post-emergence herbicidal activity (percentage phytotoxicity) AVEFA POST
[8] = pre-emergence, 480 h, PRE-emergence, visual score 20 DAA (100%=total damage, 0%=no damage), read-out: Pre-emergence herbicidal activity (percentage phytotoxicity) AVEFA PRE
[9] = post-emergence, 360 h, POST-emergence, visual score 15 DAA (100%=total damage, 0%=no damage), read-out: Post-emergence herbicidal activity (percentage phytotoxicity) ECHCG POST
[10] = pre-emergence, 480 h, PRE-emergence, visual score 20 DAA (100%=total damage, 0%=no damage), read-out: Pre-emergence herbicidal activity (percentage phytotoxicity) ECHCG PRE
[11] = post-emergence, 360 h, POST-emergence, visual score 15 DAA (100%=total damage, 0%=no damage), read-out: Post-emergence herbicidal activity (percentage phytotoxicity) LOLPE POST
[12] = pre-emergence, 480 h, PRE-emergence, visual score 20 DAA (100%=total damage, 0%=no damage), read-out: Pre-emergence herbicidal activity (percentage phytotoxicity) LOLPE PRE

Compound	pest or weed control at 250 g/ha [1, 5]	pest or weed control at 250 g/ha [1, 6]	pest or weed control at 250 g/ha [2, 7]	pest or weed control at 250 g/ha [2, 8]	pest or weed control at 250 g/ha [3, 9]	pest or weed control at 250 g/ha [3, 10]	pest or weed control at 250 g/ha [4, 11]	pest or weed control at 250 g/ha [4, 12]
C=CCNC(=O)CC1CC(=O)C(c2c(C)cc(-n3cc(Cl)cn3)cc2C)C1=O (stereo not drawn) [Compound B226]	100%	100%	90%	90%	100%	100%	90%	80%
Cc1cc(-n2cc(Cl)cn2)cc(C)c1C1C(=O)CC(CC(=O)NCC2CC2)C1=O (stereo not drawn) [Compound B227]	100%	80%	100%	80%	100%	80%	90%	80%
CCN(C)C(=O)CC1CC(=O)C(c2c(C)cc(-n3cc(Cl)cn3)cc2C)C1=O (stereo not drawn) [Compound B228]	100%	100%	100%	90%	100%	90%	100%	100%
Cc1cc(-n2cc(Cl)cn2)cc(C)c1C1C(=O)CC(CC(=O)N(C)C(C)(C)C)C1=O (stereo not drawn) [Compound B229]	80%	90%	80%	90%	100%	100%	70%	90%
C#CCN(C)C(=O)CC1CC(=O)C(c2c(C)cc(-n3cc(Cl)cn3)cc2C)C1=O (stereo not drawn) [Compound B230]	100%	90%	100%	90%	100%	100%	90%	90%
CCc1cc(-n2cc(Cl)cn2)cc(C)c1C1C(=O)CC(CC(=O)NCc2cccc(Cl)c2)C1=O (stereo not drawn) [Compound B231]	90%	50%	100%	20%	90%	80%	90%	80%
CCc1cc(-n2cc(Cl)cn2)cc(C)c1C1C(=O)CC(CC(=O)NCc2cccc(F)c2)C1=O (stereo not drawn) [Compound B232]	100%	90%	100%	70%	100%	90%	100%	90%
CCc1cc(-n2cc(Cl)cn2)cc(C)c1C1C(=O)CC(CC(=O)NCc2ccc(OC)cc2)C1=O (stereo not drawn) [Compound B233]	60%	70%	70%	60%	100%	70%	70%	70%
CCc1cc(-n2cc(Cl)cn2)cc(C)c1C1C(=O)CC(CC(=O)NCc2ccc(C#N)cc2)C1=O (stereo not drawn) [Compound B234]	90%	60%	100%	80%	90%	70%	80%	70%
CCc1cc(-n2cc(Cl)cn2)cc(C)c1C1C(=O)CC(CC(=O)NC(C)C)C1=O (stereo not drawn) [Compound B235]	100%	100%	100%	100%	100%	100%	100%	100%
C=CCNC(=O)CC1CC(=O)C(c2c(C)cc(-n3cc(Cl)cn3)cc2CC)C1=O (stereo not drawn) [Compound B236]	100%	90%	100%	90%	100%	90%	100%	90%
CCc1cc(-n2cc(Cl)cn2)cc(C)c1C1C(=O)CC(CC(=O)NCC2CC2)C1=O (stereo not drawn) [Compound B237]	100%	100%	100%	90%	100%	90%	100%	90%
CCc1cc(-n2cc(Cl)cn2)cc(C)c1C1C(=O)CC(CC(=O)N(C)CC)C1=O (stereo not drawn) [Compound B238]	100%	100%	100%	100%	100%	100%	100%	100%
CCc1cc(-n2cc(Cl)cn2)cc(C)c1C1C(=O)CC(CC(=O)N(C)C(C)(C)C)C1=O (stereo not drawn) [Compound B239]	90%	100%	100%	90%	100%	100%	100%	100%
C#CCN(C)C(=O)CC1CC(=O)C(c2c(C)cc(-n3cc(Cl)cn3)cc2CC)C1=O (stereo not drawn) [Compound B240]	100%	100%	100%	90%	100%	90%	100%	90%
C/C=C/c1cc(C)c(C2C(=O)CC(CC(=O)NCc3cccc(Cl)c3)C2=O)c(C)c1 (stereo not drawn) [Compound B241]	80%	60%	100%	50%	100%	70%	90%	80%
C/C=C/c1cc(C)c(C2C(=O)CC(CC(=O)NCc3cccc(F)c3)C2=O)c(C)c1 (stereo not drawn) [Compound B242]	90%	0%	90%	0%	100%	0%	100%	0%
C/C=C/c1cc(C)c(C2C(=O)CC(CC(=O)NCc3ccc(OC)cc3)C2=O)c(C)c1 (stereo not drawn) [Compound B243]	80%	0%	50%	0%	90%	0%	70%	0%
C/C=C/c1cc(C)c(C2C(=O)CC(CC(=O)NCc3ccc(C#N)cc3)C2=O)c(C)c1 (stereo not drawn) [Compound B244]	0%	0%	80%	0%	90%	0%	60%	0%
C/C=C/c1cc(C)c(C2C(=O)CC(CC(=O)NC(C)C)C2=O)c(C)c1 (stereo not drawn) [Compound B245]	100%	100%	100%	90%	100%	90%	100%	90%
C=CCNC(=O)CC1CC(=O)C(c2c(C)cc(/C=C/C)cc2C)C1=O (stereo not drawn) [Compound B246]	100%	60%	100%	50%	100%	70%	100%	90%
